IC50 and Activity data for one compound are collected here from ChEMBL document CHEMBL1150975, “Biochemical and three-dimensional-structural study of the specific inhibition of protein kinase CK2 by [5-oxo-5,6-dihydroindolo-(1,2-a)quinazolin-7-yl]acetic acid (IQA)” (Biochem J, 2003).

Experiment [1] deals with Phosphatidylinositol 4,5-bisphosphate 3-kinase catalytic subunit gamma isoform (Homo sapiens, UniProt P48736). In words: Inhibition of PI3K gamma.
Experiment [2] addresses Mast/stem cell growth factor receptor Kit (Homo sapiens) (UniProt P10721). The experiment in a line: Percent residual c-Kit activity in the presence of 10uM inhibitor.

Phosphatidylinositol 4,5-bisphosphate 3-kinase catalytic subunit gamma isoform, sequence (P48736 whole entry, canonical isoform): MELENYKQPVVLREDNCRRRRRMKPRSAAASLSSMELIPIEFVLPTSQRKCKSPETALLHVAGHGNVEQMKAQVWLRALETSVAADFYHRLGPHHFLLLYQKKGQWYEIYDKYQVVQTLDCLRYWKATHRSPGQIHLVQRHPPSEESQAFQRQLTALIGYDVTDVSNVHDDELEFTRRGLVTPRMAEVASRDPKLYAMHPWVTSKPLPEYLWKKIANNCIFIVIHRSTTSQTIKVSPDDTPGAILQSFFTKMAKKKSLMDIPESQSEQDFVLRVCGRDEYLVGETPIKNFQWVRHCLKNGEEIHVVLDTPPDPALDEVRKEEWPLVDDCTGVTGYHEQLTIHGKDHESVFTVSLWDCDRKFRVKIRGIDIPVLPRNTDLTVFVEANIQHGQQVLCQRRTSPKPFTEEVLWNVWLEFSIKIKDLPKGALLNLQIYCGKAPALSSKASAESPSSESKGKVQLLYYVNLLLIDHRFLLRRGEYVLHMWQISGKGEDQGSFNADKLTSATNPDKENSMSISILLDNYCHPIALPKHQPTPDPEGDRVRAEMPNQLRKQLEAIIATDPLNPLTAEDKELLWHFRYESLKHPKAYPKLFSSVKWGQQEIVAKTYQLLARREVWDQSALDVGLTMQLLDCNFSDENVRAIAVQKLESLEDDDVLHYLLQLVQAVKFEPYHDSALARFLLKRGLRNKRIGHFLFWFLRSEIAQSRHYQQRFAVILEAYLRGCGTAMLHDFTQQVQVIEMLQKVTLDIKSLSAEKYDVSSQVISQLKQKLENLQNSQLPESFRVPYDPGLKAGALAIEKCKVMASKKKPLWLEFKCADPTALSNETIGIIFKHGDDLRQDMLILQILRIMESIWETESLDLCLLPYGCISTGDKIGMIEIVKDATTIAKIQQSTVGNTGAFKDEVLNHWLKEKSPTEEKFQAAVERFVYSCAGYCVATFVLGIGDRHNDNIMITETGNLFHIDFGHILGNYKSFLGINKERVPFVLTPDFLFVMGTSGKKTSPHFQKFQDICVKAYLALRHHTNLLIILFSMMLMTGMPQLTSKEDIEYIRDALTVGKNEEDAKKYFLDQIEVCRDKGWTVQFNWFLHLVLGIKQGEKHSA
Mast/stem cell growth factor receptor Kit (Homo sapiens), sequence (P10721 whole entry): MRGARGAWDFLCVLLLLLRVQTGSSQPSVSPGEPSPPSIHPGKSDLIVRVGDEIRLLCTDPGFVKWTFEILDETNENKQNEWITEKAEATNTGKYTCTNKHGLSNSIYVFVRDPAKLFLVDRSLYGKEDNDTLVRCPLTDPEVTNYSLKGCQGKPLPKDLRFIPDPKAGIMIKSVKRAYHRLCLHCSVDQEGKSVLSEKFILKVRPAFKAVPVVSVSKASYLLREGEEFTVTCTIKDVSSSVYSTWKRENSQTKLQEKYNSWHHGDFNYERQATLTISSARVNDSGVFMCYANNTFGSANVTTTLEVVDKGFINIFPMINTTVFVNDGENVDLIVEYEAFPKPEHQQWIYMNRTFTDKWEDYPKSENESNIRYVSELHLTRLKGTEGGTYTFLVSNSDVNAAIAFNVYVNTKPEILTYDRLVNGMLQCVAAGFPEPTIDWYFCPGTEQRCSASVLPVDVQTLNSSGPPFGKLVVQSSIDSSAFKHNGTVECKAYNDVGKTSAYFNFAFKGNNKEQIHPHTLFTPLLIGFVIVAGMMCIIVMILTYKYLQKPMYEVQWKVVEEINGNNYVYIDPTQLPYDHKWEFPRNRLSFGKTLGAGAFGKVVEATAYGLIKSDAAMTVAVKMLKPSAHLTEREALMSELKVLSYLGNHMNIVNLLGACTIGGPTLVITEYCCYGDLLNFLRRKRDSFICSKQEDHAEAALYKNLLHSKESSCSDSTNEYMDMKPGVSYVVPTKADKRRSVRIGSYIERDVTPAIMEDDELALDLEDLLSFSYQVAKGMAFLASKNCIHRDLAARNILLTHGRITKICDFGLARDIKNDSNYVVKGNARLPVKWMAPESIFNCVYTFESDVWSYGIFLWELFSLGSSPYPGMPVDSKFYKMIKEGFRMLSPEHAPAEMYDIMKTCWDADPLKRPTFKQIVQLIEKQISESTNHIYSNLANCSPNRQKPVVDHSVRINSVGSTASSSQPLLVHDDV

`O=C(O)Cc1c2ccccc2n2c1[nH]c(=O)c1ccccc12` displayed an IC50 in experiment [1] above 200 µM. In addition, in experiment [2], the Activity is 80%.

By IC50 is commonly meant the point on the concentration scale where inhibition reaches its midpoint. High values mean lower potency, low ones higher potency.
